Experimental data as given in patent US20180360705A1, “TOPICAL DELIVERY SYSTEM FOR ACTIVE INREDIENTS” (L'OREAL, priority 2015, published 2018).

Experiment: Maximum solubility of active ingredient in oils
Format: physicochemical
Conditions: room temperature, atmospheric pressure
Experimental: The maximum solubility of the active ingredients in the oil phase can be measured in any way which is known in the art. For example, an excess amount of the active ingredient is dissolved in the oil and mixed vigorously at elevated temperature, and then this sample is cooled down to room temperature and maintained for several hours to days. This mixture is centrifuged to separate an oil phase and the concentration of the active ingredient in the separated oil phase is measured using UV spectroscopy.
In the representative examples of the active ingredients of the present invention, the maximum solubilities of phenylethyl resorcinol and 4-(tetrahydro-2H-pyran-4-yl) benzene-1,3-diol in various oils measured at room temperature and under atmospheric pressure are shown below.

Structure (SMILES): CC(c1ccccc1)c1ccc(O)cc1O (stereo not shown) [Phenylethyl Resorcinol]
- maximum solubility in oil (Isododecane): 0.043%
- maximum solubility in oil (Isopropyl Lauroyl Sarcosinate): 42%
- maximum solubility in oil (Isopropyl Myristate): 36%
- maximum solubility in oil (Sesamum Indicum (Sesame) Seed Oil): 23%
